From patent US8772319B2 (priority 2004, dated 2014)
Like-named read-outs stand apart in the source and are kept apart here.

Columns and labels:
5-HT1A receptor = target: T1, 5-HT1A receptor (Homo sapiens, UniProt P08908); test: 5-HT1A receptor binding, HA7 cells, [3H]8-OH-DPAT; settings: for binding for 5-HT1A: Table 7
T1 construct: expressed in transfected cells; host or cells: HA7 cells
T1 sequence (P08908 1-422): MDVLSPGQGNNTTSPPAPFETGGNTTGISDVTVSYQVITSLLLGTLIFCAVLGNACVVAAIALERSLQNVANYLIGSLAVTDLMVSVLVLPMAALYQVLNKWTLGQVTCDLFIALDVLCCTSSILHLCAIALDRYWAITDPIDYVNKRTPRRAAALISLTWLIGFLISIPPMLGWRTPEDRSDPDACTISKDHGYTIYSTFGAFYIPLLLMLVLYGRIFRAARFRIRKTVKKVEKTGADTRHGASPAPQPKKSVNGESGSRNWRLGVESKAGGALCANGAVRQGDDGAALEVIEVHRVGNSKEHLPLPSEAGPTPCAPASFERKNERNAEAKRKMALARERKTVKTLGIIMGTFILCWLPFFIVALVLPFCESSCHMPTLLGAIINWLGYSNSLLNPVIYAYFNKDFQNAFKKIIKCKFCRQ

[1] = target: T2, human dopamine transporter (hDAT) (Homo sapiens, UniProt Q01959); test: cell-based; settings: for Discrimination Ratios (DR) [3H]DA reuptake/DAT binding: Table 6; for IC50: Reuptake Inhibition [3H]DA IC50, Table 6
5-HT2A receptor = target: T3, 5-HT2A receptor (Rattus norvegicus, UniProt P14842); test: 5-HT2A receptor binding, NIH-3T3-GF6 cells, [3H]ketanserin
T3 construct: expressed in transfected cells; host or cells: NIH-3T3-GF6 cells

5-HT2C receptor = target: T4, 5-HT2C receptor (Rattus norvegicus, UniProt P08909); test: 5-HT2C receptor binding, NIH-3T3-P cells, [3H]mesulergine
T4 construct: expressed in transfected cells; host or cells: NIH-3T3-P cells
T4 sequence (P08909 33-460): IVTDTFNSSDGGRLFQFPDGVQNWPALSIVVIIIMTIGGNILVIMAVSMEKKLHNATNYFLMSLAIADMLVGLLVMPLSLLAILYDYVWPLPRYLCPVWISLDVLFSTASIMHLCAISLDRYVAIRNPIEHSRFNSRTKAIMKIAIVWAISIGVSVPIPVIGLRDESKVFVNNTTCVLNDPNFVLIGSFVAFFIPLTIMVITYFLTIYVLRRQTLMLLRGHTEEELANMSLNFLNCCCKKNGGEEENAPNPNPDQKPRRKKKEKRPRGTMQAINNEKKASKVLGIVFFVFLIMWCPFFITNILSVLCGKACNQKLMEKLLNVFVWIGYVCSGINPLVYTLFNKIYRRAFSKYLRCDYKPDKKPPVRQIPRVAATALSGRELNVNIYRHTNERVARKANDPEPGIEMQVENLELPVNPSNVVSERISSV

D2 receptor [2] = target: T5, D2 receptor (Homo sapiens, UniProt P14416); test: cell-based; settings: for IC50: read-out: D2 Antagonist activity IC50
T5 construct: expressed in transfected cells; host or cells: CHOp- cells (CHOp-D2)

D3 receptor [3] = target: T6, D3 receptor (Homo sapiens, UniProt P35462); test: D3 receptor binding, CHOp- cells, [3H]YM-09151-2
T6 construct: expressed in transfected cells; host or cells: CHOp- cells (CHOp-D3)

D2 receptor [4] = target: T5, D2 receptor; test: D2 receptor binding, CHOp- cells, [3H]YM-09151-2
D3 receptor [5] = target: T6, D3 receptor; test: Inhibition of quinpirole-stimulated mitogenesis ([3H]thymidine incorporation), CHOp-D3 cells; type: cell-based
[6] = target: T2, human dopamine transporter (hDAT); test: biochemical; type: binding; settings: for Binding Ratios NET/DAT / Binding Ratios SERT/DAT: Table 5
D1 receptor = target: T7, D1 receptor (Homo sapiens, UniProt P21728); test: D1 receptor binding, LHD1 cells, [3H]SCH 23,390
T7 construct: expressed in transfected cells; host or cells: LHD1 cells

[7] = target: T8, human norepinephrine transporter (hNET) (Homo sapiens, UniProt P23975); test: biochemical; settings: Table 5; [125I]RTI-55; oxalate salts; read-out: NET binding affinity Ki
male Swiss-Webster mice [8] = test: Cocaine/compound interaction study on locomotor activity; type: in vivo, mouse; settings: for Attenuation of cocaine-induced LMA: 20 mg/kg of cocaine
[9] = target: T9, human serotonin transporter (hSERT) (Homo sapiens, UniProt P31645); test: biochemical; settings: Table 5, read-out: SERT binding affinity Ki
[10] = target: T8, human norepinephrine transporter (hNET); test: cell-based; settings: Table 6; read-out: Reuptake Inhibition [3H]NE IC50
[11] = target: T9, human serotonin transporter (hSERT); test: cell-based; settings: Reuptake Inhibition [3H]5-HT IC50, Table 6
male Swiss-Webster mice [12] = test: Locomotor activity, compound alone, 1-h session; type: in vivo, mouse; settings: Table 8; mouse, IP, ligand alone, 1-h session
Description: (§1) 3. Locomotor Activity. […] Panels of infrared beams (16 beams) and corresponding photodetectors were located in the horizontal direction along the sides of each activity chamber. […] Just prior to placement in the apparatus, all mice received a saline injection IP. In all studies, horizontal activity (interruption of 1 photocell beam) was measured for 1-h within 10-min periods. Testing was conducted with one mouse per activity chamber. […] Plot the mean (±SEM) maximal stimulant activity (total counts in the 30 min period divided by 3) vs dose. Perform a log10 transformation of the 30 min period average counts for individual subjects to homogenize variances for subsequent analyses. […] Fit the 30 min period average counts across subjects to a function of log10 dose using least-squares curve-fitting analyses (i.e. TableCurve software from Jandel). Estimate the maximum effect from the resultant dose-response curve. […] Determine the ED50 (dose that produces ½ maximal stimulant activity) from a linear regression analysis of the ascending portion (up to the dose that produces a maximal effect) of the curve. […] Plot the mean (±SEM) activity (total counts in the 30 min period divided by 3) vs dose. Perform a log10 transformation of the 30 min period average counts for individual subjects to homogenize variances for subsequent analyses. Conduct an ANOVA and contrast (specified a priori) each dose of the test compound to the vehicle to determine significant (p<0.05) dose effects. Conduct a linear least-squares regression analysis; regress the min period average counts across subjects over the descending portion of the curve against the log10 dose of the test compound. […] Perform a log10 transformation of the 30 min period average counts for individual subjects to homogenize variances for subsequent analyses. […] Conduct a linear least-squares regression analysis; regress the 30 min period average counts across subjects over the descending portion of the curve against the log10 dose of the test compound. […] Locomotor Activity 8-hour time course/dose response study. […] A panel of infrared beams (16 beams) and corresponding photodetectors were located in the horizontal direction along the sides of each activity chamber. A 7.5-W incandescent light above each chamber provided dim illumination. Fans provided an 80-dB ambient noise level within the chamber. […] In all studies, horizontal activity (interruption of photocell beams) was measured for 8-h within 10-min periods, beginning at 0800 hrs (2 hours after lights on). Testing was conducted with one mouse per activity chamber. Compound alone study.

male Swiss-Webster mice [13] = test: Locomotor activity 8-hour time course/dose response study
Description: as §1

T8 sequence (P23975 whole entry): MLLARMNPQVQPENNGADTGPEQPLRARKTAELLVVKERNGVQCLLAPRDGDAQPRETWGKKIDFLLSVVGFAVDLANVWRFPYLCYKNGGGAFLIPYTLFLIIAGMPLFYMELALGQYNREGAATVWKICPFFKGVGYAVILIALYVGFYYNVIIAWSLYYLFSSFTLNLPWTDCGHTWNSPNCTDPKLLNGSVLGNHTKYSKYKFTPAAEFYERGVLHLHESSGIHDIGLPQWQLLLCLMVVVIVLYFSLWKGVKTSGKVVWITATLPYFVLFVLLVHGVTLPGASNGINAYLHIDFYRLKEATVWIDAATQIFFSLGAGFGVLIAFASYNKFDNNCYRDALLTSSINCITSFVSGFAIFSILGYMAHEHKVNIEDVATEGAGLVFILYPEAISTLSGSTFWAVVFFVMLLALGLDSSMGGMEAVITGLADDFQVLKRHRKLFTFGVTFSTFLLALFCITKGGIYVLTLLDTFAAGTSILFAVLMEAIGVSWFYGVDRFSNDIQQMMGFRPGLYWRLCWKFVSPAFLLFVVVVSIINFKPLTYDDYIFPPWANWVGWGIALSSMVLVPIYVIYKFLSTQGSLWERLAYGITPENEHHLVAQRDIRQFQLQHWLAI
T6 sequence (P35462 whole entry): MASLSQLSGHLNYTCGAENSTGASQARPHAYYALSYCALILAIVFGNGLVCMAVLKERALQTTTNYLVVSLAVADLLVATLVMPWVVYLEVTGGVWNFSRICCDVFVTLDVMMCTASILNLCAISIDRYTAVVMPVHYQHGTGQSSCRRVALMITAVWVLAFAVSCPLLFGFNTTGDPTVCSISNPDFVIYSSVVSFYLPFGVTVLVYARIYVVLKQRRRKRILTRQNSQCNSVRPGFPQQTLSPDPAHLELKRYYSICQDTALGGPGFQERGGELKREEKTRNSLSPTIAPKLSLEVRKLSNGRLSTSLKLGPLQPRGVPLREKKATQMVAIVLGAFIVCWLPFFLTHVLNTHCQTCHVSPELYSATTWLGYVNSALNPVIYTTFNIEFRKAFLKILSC
T2 sequence (Q01959 whole entry): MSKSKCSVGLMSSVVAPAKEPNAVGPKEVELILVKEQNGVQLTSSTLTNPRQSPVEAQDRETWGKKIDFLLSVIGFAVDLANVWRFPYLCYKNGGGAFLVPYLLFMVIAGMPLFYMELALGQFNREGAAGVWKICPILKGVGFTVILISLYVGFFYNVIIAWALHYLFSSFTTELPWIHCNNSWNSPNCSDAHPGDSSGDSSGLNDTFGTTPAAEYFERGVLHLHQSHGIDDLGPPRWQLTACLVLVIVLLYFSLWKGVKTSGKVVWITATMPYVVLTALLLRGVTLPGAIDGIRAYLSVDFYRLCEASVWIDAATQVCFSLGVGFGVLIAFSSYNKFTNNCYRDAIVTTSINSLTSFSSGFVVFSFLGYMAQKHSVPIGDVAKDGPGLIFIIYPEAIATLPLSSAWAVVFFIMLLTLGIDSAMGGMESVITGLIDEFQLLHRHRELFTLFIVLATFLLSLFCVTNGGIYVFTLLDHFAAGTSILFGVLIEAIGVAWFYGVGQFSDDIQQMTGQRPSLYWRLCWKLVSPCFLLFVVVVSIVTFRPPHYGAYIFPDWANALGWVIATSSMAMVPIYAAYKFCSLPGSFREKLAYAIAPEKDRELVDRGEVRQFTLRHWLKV
T7 sequence (P21728 whole entry): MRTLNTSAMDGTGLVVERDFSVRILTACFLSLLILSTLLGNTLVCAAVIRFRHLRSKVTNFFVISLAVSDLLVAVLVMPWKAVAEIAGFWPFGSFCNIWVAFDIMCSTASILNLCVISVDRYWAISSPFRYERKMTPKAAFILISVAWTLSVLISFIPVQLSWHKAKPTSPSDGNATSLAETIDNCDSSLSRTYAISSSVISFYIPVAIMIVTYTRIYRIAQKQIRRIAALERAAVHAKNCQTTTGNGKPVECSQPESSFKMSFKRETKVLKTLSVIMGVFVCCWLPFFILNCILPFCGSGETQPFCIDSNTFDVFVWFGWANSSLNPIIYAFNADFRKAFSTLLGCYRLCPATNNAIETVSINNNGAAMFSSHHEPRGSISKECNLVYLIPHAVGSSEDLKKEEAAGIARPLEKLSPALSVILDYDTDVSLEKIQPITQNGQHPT
T3 sequence (P14842 whole entry): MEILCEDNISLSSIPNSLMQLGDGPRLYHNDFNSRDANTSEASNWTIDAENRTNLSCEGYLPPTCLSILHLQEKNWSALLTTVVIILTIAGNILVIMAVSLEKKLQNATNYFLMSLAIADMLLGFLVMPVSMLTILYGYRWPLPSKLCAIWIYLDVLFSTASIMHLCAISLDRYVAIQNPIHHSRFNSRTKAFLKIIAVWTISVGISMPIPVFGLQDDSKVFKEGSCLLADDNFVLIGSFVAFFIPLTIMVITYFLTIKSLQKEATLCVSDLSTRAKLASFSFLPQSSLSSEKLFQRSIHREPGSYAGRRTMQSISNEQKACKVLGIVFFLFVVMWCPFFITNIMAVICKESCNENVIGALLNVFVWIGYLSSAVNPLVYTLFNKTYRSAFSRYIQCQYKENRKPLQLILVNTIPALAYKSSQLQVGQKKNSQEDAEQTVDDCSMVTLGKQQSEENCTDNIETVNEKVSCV
T9 sequence (P31645 whole entry): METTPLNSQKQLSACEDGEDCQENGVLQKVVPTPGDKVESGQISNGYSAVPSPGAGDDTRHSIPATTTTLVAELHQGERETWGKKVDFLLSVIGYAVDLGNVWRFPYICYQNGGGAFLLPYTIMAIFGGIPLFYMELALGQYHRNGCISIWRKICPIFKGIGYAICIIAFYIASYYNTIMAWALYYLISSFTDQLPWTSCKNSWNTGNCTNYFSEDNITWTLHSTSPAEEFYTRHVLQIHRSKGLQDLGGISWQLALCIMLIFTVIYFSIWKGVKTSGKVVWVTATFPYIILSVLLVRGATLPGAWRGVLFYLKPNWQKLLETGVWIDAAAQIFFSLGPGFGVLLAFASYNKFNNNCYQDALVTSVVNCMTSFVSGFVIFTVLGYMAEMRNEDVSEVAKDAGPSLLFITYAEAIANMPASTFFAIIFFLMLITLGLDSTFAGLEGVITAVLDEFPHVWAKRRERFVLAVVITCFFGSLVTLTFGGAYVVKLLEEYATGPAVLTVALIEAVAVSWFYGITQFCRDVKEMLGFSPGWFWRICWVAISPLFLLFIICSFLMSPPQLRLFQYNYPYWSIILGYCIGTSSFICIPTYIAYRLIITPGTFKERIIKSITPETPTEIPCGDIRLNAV
T5 sequence (P14416 whole entry): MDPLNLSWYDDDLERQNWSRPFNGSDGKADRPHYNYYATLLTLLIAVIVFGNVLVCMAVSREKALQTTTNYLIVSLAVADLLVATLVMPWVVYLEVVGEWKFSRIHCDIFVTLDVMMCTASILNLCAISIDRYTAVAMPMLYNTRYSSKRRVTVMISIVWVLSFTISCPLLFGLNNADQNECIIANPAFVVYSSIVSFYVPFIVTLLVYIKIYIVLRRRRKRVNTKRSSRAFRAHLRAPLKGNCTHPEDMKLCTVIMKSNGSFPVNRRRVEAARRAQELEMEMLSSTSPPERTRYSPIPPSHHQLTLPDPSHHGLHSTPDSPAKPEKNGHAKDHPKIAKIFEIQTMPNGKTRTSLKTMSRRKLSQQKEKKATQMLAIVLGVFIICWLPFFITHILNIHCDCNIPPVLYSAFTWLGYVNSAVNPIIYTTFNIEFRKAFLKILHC

SMILES	Ki (5-HT1A receptor) [µM]	Discrimination Ratios (DR) [3H]DA reuptake/DAT binding [1]	IC50 (D2 receptor [2]) [µM]	IC50 (D3 receptor [5]) [µM]	Binding Ratios NET/DAT [6]	Binding Ratios SERT/DAT [6]	Ki [7] [µM]	binding for 5-HT1A (5-HT1A receptor)	IC50 [1] [µM]	Attenuation of cocaine-induced LMA (male Swiss-Webster mice [8])	Ki (5-HT2A receptor) [µM]	Ki (5-HT2C receptor) [µM]	Ki (D3 receptor [3]) [µM]	IC50 [10] [µM]	Ki (D2 receptor [4]) [µM]	Ki [6] [µM]	Ki (D1 receptor) [µM]	also measured
Fc1ccc(C(OCCCCN2CCN(c3ccccc3)CC2)c2ccc(F)cc2)cc1 [Compound 29, 1-Phenyl-4-[4-[bis(4-fluorophenyl)methoxy]butyl]piperazine]	0.285 ± 0.0764	23.2	0.12	0.0446	3.3	0.8	–	–	–	–	–	–	–	–	–	–	–	Ki (5-HT2A receptor; Table 7, rat receptors, NIH-3T3-GF6 cells, [3H]ketanserin, read-out: 5-HT2A Affinity Ki): 0.404 ± 0.0526 µM; Ki (5-HT2C receptor; Table 7, bound given in μM, read-out: 5-HT2C Affinity Ki): > 10 µM; Ki (D3 receptor [3]; Table 7, CHOp- cells, [3H]YM-09151-2, read-out: D3 Affinity Ki): 0.242 ± 0.00741 µM; Ki (D2 receptor [4]; Table 7, CHOp- cells, [3H]YM-09151-2, read-out: D2 Affinity Ki): 0.447 ± 0.0739 µM; Ki (D1 receptor; Table 7, LHD1 cells, [3H]SCH 23,390, read-out: D1 Affinity Ki): 2.43 ± 0.367 µM
COc1ccccc1N1CCN(CCCCOC(c2ccc(F)cc2)c2ccc(F)cc2)CC1 [Compound 35, 1-(2-Methoxyphenyl)-4-[4-[bis(4-fluorophenyl)methoxy]butyl]piperazine]	0.0349 ± 0.0067	11.5	0.0844	0.0567	3.5	9.7	0.092 ± 0.011	moderate binding	0.301 ± 0.016	Attenuation	0.698 ± 0.204	3 ± 0.0731	0.118 ± 0.0319	0.176 ± 0.079	0.134 ± 0.0217	0.0262 ± 0.0025	0.777 ± 0.185	Ki ([9]; [125I]RTI-55, oxalate salts): 0.255 ± 0.089 µM; IC50 [11]: 1.23 ± 0.024 µM
Fc1ccc(C(OCCCCN2CCN(c3ccccn3)CC2)c2ccc(F)cc2)cc1 [Compound 39, 1-[4-[Bis(4-fluorophenyl)methoxy]butyl]-4-pyridin-2-ylpiperazine]	0.0535 ± 0.00862	46	–	0.955	12.3	>1190	0.103 ± 0.037	moderate binding	0.386 ± 0.055	Attenuation	0.498 ± 0.0479	3.45 ± 1.08	0.453 ± 0.163	2.23 ± 0.71	0.282 ± 0.0677	0.0084 ± 0.004	0.597 ± 0.0194	ED50, dose producing 1/2 maximal stimulant activity (S, stimulation) (male Swiss-Webster mice [12]): no activity; ED50 (male Swiss-Webster mice [13]; Mus musculus, ip, 8 h, read-out: ED50, dose producing 1/2 maximal stimulant activity (S, stimulation)): 38 mg/kg; ME/CME, Maximal Effect/Cocaine Maximal Effect (male Swiss-Webster mice [13]; Table 9, 8 hours): >0.35; mode of action (male Swiss-Webster mice [13]; Table 9, ligand alone study, 8 hours): biphasic; ID50, dose producing 1/2 maximal depressant activity (I, inhibition) (male Swiss-Webster mice [13]; Table 9, mouse, IP, 8 hours): 60.3/I^e,i mg/kg; AD50, dose attenuating cocaine-induced stimulation by 50% (male Swiss-Webster mice [8]; Table 8, ligand-cocaine interaction study, 20 mg/kg cocaine IP): 62.1 mg/kg; Ki ([9]; bound given in μM): > 10 µM; D2 functional activity, marked agonist (footnote d) (D2 receptor [2]; Table 7, CHOp-D2 cells, [3H]thymidine incorporation, agonist): 196 ± 62.8^d nM; IC50 ([11]; bound given in μM): > 10 µM
